These are literature values, as cited in patent publication US8440844B2, “Process for the preparation of β-amino alcohol” (Council of Scientific & Industrial Research, priority 2011, dated 2013).

SMILES strings stand for the structures.

Series [1] concerns β-amyloid (Aβ) production. As to conditions: background statement.
In a further series the target is γ-secretase. As to conditions: Notch-1-sparing γ-secretase inhibitor; background statement, no method given.

What is called EC50 is the concentration at which the effect is half-maximal. For the molecule `CCC(CC)[C@@H](CO)NS(=O)(=O)c1ccc(Cl)s1` [(S)—N-(5-chlorothiophene-2-sulfonyl)-β,β-diethylalaninol], the “reduction of Aβ production in vivo” value in series [1] is “effective in reduction of Aβ production in vivo”. Further, on γ-secretase, the concentration giving a half-maximal response (EC50) is 28 nM.
